Measurements from patent US11192849B2, “Compounds, compositions, and methods for modulating ferroptosis and treating excitotoxic disorders” (THE TRUSTEES OF COLUMBIA UNIVERSITY IN THE CITY OF NEW YORK, priority 2013, dated 2021).
Read-outs that look alike come from different tables or passages of the source.

What was measured:
[1] = test system: rat corticostriatal brain slices, medium spiny neurons; test: Brain slice assay for HD (httN90Q73-transfected corticostriatal slices); format: cell-based; details: for number of healthy medium spiny neurons (MSNs): 10 nM, 100 nM and 1 μM, four days
Protocol: 250 μm corticostriatal brain slices were prepared from postnatal day 10 CD Sprague-Dawley rat pups (Charles River) as previously described (Hoffstrom et al., 2010). Brain slice explants were placed in interface culture in 6-well plates using culture medium containing 15% heat-inactivated horse serum, 10 mM KCl, 10 mM HEPES, 100 U/ml penicillin/streptomycin, 1 mM MEM sodium pyruvate, and 1 mM L-glutamine in Neurobasal A (Invitrogen) and maintained in humidified incubators under 5% CO2 at 32 deg. C. A custom-modified biolistic device (Helios Gene Gun; Bio-Rad) was used to transfect the brain slices with a human htt exon-1 expression construct containing a 73 CAG repeat (“HttN90Q73”) in the gWiz backbone (Genlantis) together with a YFP expression construct to visualize transfected neurons. Control brain slices were transfected with gWiz blank vector and YFP at the equivalent DNA amounts. After 4 days of incubation, MSNs were identified by their location within the striatum and by their characteristic dendritic morphology and scored as healthy if expressing bright and continuous YFP labeling throughout, normal-sized cell bodies, and >2 primary dendrites >2 cell bodies long, as previously described^21. Data were expressed as mean numbers of healthy MSNs per striatal region in each brain slice, with statistical significance tested by ANOVA followed by Dunnett's post hoc comparison test at the 0.05 confidence level. […]
Fer-1 attenuates lipid peroxidation and ferroptosis in cancer cells treated with small molecules that block cystine import or glutathione production, as well as cell death in rat organotypic hippocampal brain slices treated with toxic concentrations of glutamate, which also blocks cystine import (Dixon, et al., 2012). […] Four days later, the number of healthy medium spiny neurons (MSNs) was quantified, as previously described (Varma, et al., 2011, Hoffstrom, et al., 2010).

HT-1080 cells = test: Inhibition of erastin (10 μM)-induced death in HT-1080 cells (Alamar Blue); format: cell-based, human; details: for EC50: Homo sapiens
Summary of the method: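 HT-1080 cells (1,000/well) were treated next day with 10 μM erastin plus a compound dilution series for 24 h. Alamar Blue (10% final) was then added for 6 h and fluorescence read at ex/em 530/590.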

SMILES	number of healthy medium spiny neurons (MSNs) [1]	number of healthy MSNs versus controls ([1]; 1 μM)	EC50 (HT-1080 cells; HT-1080, SI Table 2, analogs with various hydrophobic moieties) [nM]	EC50 (HT-1080 cells; HT-1080, SI Table 5) [nM]	EC50 (HT-1080 cells; HT-1080, SI Table 8) [nM]	EC50 (HT-1080 cells; HT-1080, Table 1 (Example 10), erastin (10 μM)-treated HT-1080 cells) [nM]	prevention of erastin-induced death (HT-1080 cells; erastin-treated HT-1080 cells)	fold more potent than the parent Fer-1 (HT-1080 cells; HT-1080, erastin (10 μM)) [fold]	potency compared with Fer-1 (HT-1080 cells; HT-1080, erastin (10 μM))	EC50 (HT-1080 cells; HT-1080, Example 15, erastin (10 μM), HT-1080, read-out: EC50) [nM]	EC50 (HT-1080 cells; HT-1080, SI Table 6, read-out: EC50) [nM]	EC50 (HT-1080 cells; HT-1080, SI Table 7, read-out: EC50) [nM]
CCOC(=O)c1ccc(NC2CCCCC2)c(N)c1 [SRS8-28 (Fer-1), ethyl 3-amino-4-(cyclohexylamino)benzoate]	significant increase in the number of healthy MSNs	statistically indistinguishable from both the YFP (no htt) control and the control inhibitor combination	95	88	88	95	suppressed erastin-induced death					
CCOC(=O)c1ccc(NC2CCCCC2)c(NCc2ccccc2)c1 [SRS11-92, ethyl 3-(benzylamino)-4-(cyclohexylamino)benzoate]	significant increase in the number of healthy MSNs							15	more potent than Fer-1	6	6	6
